# Patent publication US20090312406A1, “COUMARIN COMPOUNDS AND THEIR USE FOR TREATING VIRAL INFECTION” (priority 2008, published 2009)
# Test system: Influenza A/WSN/33 (H1N1) virus
# Experiment: In vitro anti-influenza virus assay (neutralization test), cytopathic effect on MDCK cells
# Format: cell-based
# Conditions: MDCK cells, 72 h, lower bound (10 nM), upper in μM, read-out: IC50 (concentration reducing virus-induced cytopathic effect by 50%)
# Experimental: Anti-influenza activities of the coumarin compounds were evaluated by measuring the ability of a test compound to inhibit the cytopathic effect induced by an influenza virus on MDCK cells. The 96-well tissue culture plates were seeded with 200 μL of MDCK cells at a concentration of 1.1×10^5 cells/mL in DMEM with 10% fetal bovine serum (FBS). The plates were incubated for 24-30 h at 37° C. and were used at about 90% confluency. Influenza A/WSN/33 (H1N1) virus (100 TCID50) was added to the cells and incubated at 35° C. for 1 h. After adsorption, the infected cell plates were overlaid with 50 μL of DMEM plus 2% FBS and a test compound with different concentrations. The plate was incubated at 35° C. for 72 h. At the end of incubation, the plates were fixed by the addition of 100 μL of 4% formaldehyde for 1 h at room temperature. After the removal of formaldehyde, the plates were stained with 0.1% crystal violet for 15 min at room temperature. The plates were washed and dried, and the density of the well was measured at 570 nm. The concentration required for a test compound to reduce the virus-induced cytopathic effect (CPE) by 50% relative to the virus control was expressed as IC50.
# Compounds 1 and 95 were also tested on various influenza virus strains. Amantadine or Relenza was also tested for comparison. IC50 is defined as the concentration required for a test compound to reduce the virus-induced cytopathic effect (CPE) by 50% relative to the virus control.
row,SMILES,IC50
1,Cc1c(C)c2ccc3oc(C(=O)c4ccccc4)c(-c4ccccc4)c3c2oc1=O [Compound 6],10 to 999 nM
2,CCc1cc(=O)oc2c1ccc1oc(C(=O)c3ccccc3)c(-c3ccccc3)c12 [Compound 9],10 to 999 nM
3,O=C(c1ccccc1)c1oc2ccc3c(C(F)(F)F)cc(=O)oc3c2c1-c1ccccc1 [Compound 11],10 to 999 nM
4,CCCc1cc(=O)oc2c1ccc1oc(C(=O)c3ccccc3)c(-c3ccccc3)c12 [Compound 14],10 to 999 nM
5,O=C(c1ccccc1)c1oc2ccc3c4c(c(=O)oc3c2c1-c1ccccc1)CCC4 [Compound 20],10 to 999 nM
6,Cc1cc(=O)oc2c1ccc1sc(C(=O)c3ccccc3)c(-c3ccccc3)c12 [Compound 26],10 to 999 nM
7,COc1ccccc1C(=O)c1oc2ccc3c(C)cc(=O)oc3c2c1-c1ccccc1 [Compound 30],10 to 999 nM
8,COc1cccc(C(=O)c2oc3ccc4c(C)cc(=O)oc4c3c2-c2ccccc2)c1 [Compound 31],10 to 999 nM
9,Cc1cc(=O)oc2c1ccc1oc(C(=O)c3cccc(C(F)(F)F)c3)c(-c3ccccc3)c12 [Compound 36],10 to 999 nM
10,Cc1cccc(C(=O)c2oc3ccc4c(C)cc(=O)oc4c3c2-c2ccccc2)c1 [Compound 40],10 to 999 nM
11,Cc1ccc(C(=O)c2oc3ccc4c(C)cc(=O)oc4c3c2-c2ccccc2)cc1 [Compound 41],10 to 999 nM
12,Cc1cc(=O)oc2c1ccc1oc(C(=O)c3ccccc3F)c(-c3ccccc3)c12 [Compound 44],10 to 999 nM
13,Cc1cc(=O)oc2c1ccc1oc(C(=O)c3ccc(F)cc3)c(-c3ccccc3)c12 [Compound 46],10 to 999 nM
14,Cc1cc(=O)oc2c1ccc1oc(C(=O)c3ccccc3Cl)c(-c3ccccc3)c12 [Compound 47],10 to 999 nM
15,Cc1cc(=O)oc2c1ccc1oc(C(=O)c3cccc(Cl)c3)c(-c3ccccc3)c12 [Compound 48],10 to 999 nM
16,Cc1cc(=O)oc2c1ccc1oc(C(=O)c3ccc4ccccc4c3)c(-c3ccccc3)c12 [Compound 54],10 to 999 nM
17,Cc1cc(=O)oc2c1ccc1oc(C(=O)c3ccc(F)cc3F)c(-c3ccccc3)c12 [Compound 59],10 to 999 nM
18,Cc1cc(=O)oc2c1ccc1oc(C(=O)c3ccc(F)c(F)c3)c(-c3ccccc3)c12 [Compound 60],10 to 999 nM
19,Cc1cc(=O)oc2c1ccc1oc(C(=O)c3cc(F)ccc3F)c(-c3ccccc3)c12 [Compound 61],10 to 999 nM
20,CCOc1cccc(C(=O)c2oc3ccc4c(C)cc(=O)oc4c3c2-c2ccccc2)c1 [Compound 68],10 to 999 nM
21,CCCOc1cccc(C(=O)c2oc3ccc4c(C)cc(=O)oc4c3c2-c2ccccc2)c1 [Compound 69],10 to 999 nM
22,CCCCOc1cccc(C(=O)c2oc3ccc4c(C)cc(=O)oc4c3c2-c2ccccc2)c1 [Compound 70],10 to 999 nM

row,SMILES,IC50
1,CCCCCOc1cccc(C(=O)c2oc3ccc4c(C)cc(=O)oc4c3c2-c2ccccc2)c1 [Compound 71],10 to 999 nM
2,CCCCCCOc1cccc(C(=O)c2oc3ccc4c(C)cc(=O)oc4c3c2-c2ccccc2)c1 [Compound 72],10 to 999 nM
3,Cc1cc(=O)oc2c1ccc1oc(C(=O)c3cccc(OCCCCl)c3)c(-c3ccccc3)c12 [Compound 74],10 to 999 nM
4,Cc1cc(=O)oc2c1ccc1oc(C(=O)c3cccc(OCCCCCl)c3)c(-c3ccccc3)c12 [Compound 75],10 to 999 nM
5,C=CCOc1cccc(C(=O)c2oc3ccc4c(C)cc(=O)oc4c3c2-c2ccccc2)c1 [Compound 76],10 to 999 nM
6,C=CCCOc1cccc(C(=O)c2oc3ccc4c(C)cc(=O)oc4c3c2-c2ccccc2)c1 [Compound 77],10 to 999 nM
7,C=CCCCOc1cccc(C(=O)c2oc3ccc4c(C)cc(=O)oc4c3c2-c2ccccc2)c1 [Compound 78],10 to 999 nM
8,C=CCCCCOc1cccc(C(=O)c2oc3ccc4c(C)cc(=O)oc4c3c2-c2ccccc2)c1 [Compound 79],10 to 999 nM
9,Cc1cc(=O)oc2c1ccc1oc(C(=O)c3ccco3)c(-c3ccccc3)c12 [Compound 92],10 to 999 nM
10,Cc1cc(=O)oc2c1ccc1oc(C(=O)c3ccsc3)c(-c3ccccc3)c12 [Compound 96],10 to 999 nM
11,Cc1cc(=O)oc2c1ccc1oc(C(=O)c3ccc(Br)s3)c(-c3ccccc3)c12 [Compound 98],10 to 999 nM
12,Cc1ccsc1C(=O)c1oc2ccc3c(C)cc(=O)oc3c2c1-c1ccccc1 [Compound 100],10 to 999 nM
13,Cc1cc(=O)oc2c1ccc1oc(C(=O)c3nccs3)c(-c3ccccc3)c12 [Compound 107],10 to 999 nM
14,Cc1cc(=O)oc2c1ccc1oc(C(=O)c3ccccn3)c(-c3ccccc3)c12 [Compound 115],10 to 999 nM
15,Cc1cc(=O)oc2c1ccc1oc(C(=O)c3ccccc3)c(-c3ccccc3F)c12 [Compound 132],10 to 999 nM
16,Cc1cc(=O)oc2c1ccc1oc(C(=O)c3ccccc3)c(-c3ccccc3Cl)c12 [Compound 135],10 to 999 nM
17,Cc1cc(=O)oc2c1ccc1oc(C(=O)c3ccccc3)c(-c3ccc(Cl)cc3)c12 [Compound 137],10 to 999 nM
18,Cc1cc(=O)oc2c1ccc1oc(C(=O)c3ccccc3)c(-c3ccccc3Br)c12 [Compound 138],10 to 999 nM
19,Cc1cc(=O)oc2c1ccc1oc(C(=O)c3ccccc3)c(-c3cccc(Br)c3)c12 [Compound 139],10 to 999 nM
20,Cc1ccc(-c2c(C(=O)c3ccccc3)oc3ccc4c(C)cc(=O)oc4c23)cc1 [Compound 142],10 to 999 nM
21,Cc1cc(=O)oc2c1ccc1oc(C(=O)c3ccccc3)c(-c3cccc(C#N)c3)c12 [Compound 143],10 to 999 nM
22,Cc1cc(=O)oc2c1ccc1oc(C(=O)c3ccccc3)c(-c3cccc([N+](=O)[O-])c3)c12 [Compound 144],10 to 999 nM

# Same assay, conditions: MDCK cells, 72 h, ranges given, read-out: IC50 (concentration reducing virus-induced cytopathic effect by 50%)
row,SMILES,IC50
1,O=C(c1ccccc1)c1oc2ccc3ccc(=O)oc3c2c1-c1ccccc1 [Compound 2],6000 to 25000 nM
2,Cc1cc2ccc3oc(C(=O)c4ccccc4)c(-c4ccccc4)c3c2oc1=O [Compound 3],1000 to 5900 nM
3,Cc1cc2oc(C(=O)c3ccccc3)c(-c3ccccc3)c2c2oc(=O)ccc12 [Compound 4],6000 to 25000 nM
4,O=Cc1cc(=O)oc2c1ccc1oc(C(=O)c3ccccc3)c(-c3ccccc3)c12 [Compound 10],1000 to 5900 nM
5,Cc1cc(=O)oc2c1cc(CC1CO1)c1oc(C(=O)c3ccccc3)c(-c3ccccc3)c12 (centres unmarked) [Compound 18],1000 to 5900 nM
6,O=C(c1ccccc1)c1oc2ccc3c4ccccc4c(=O)oc3c2c1-c1ccccc1 [Compound 22],6000 to 25000 nM
7,COc1ccc(C(=O)c2oc3ccc4c(C)cc(=O)oc4c3c2-c2ccccc2)cc1 [Compound 32],1000 to 5900 nM
8,Cc1cc(=O)oc2c1ccc1oc(C(=O)c3ccc(O)cc3)c(-c3ccccc3)c12 [Compound 34],1000 to 5900 nM
9,Cc1ccccc1C(=O)c1oc2ccc3c(C)cc(=O)oc3c2c1-c1ccccc1 [Compound 39],6000 to 25000 nM
10,Cc1cc(=O)oc2c1ccc1oc(C(=O)c3cccc(C#N)c3)c(-c3ccccc3)c12 [Compound 42],1000 to 5900 nM
11,Cc1cc(=O)oc2c1ccc1oc(C(=O)c3ccc(Cl)cc3)c(-c3ccccc3)c12 [Compound 49],6000 to 25000 nM
12,Cc1cc(=O)oc2c1ccc1oc(C(=O)c3ccc([N+](=O)[O-])cc3)c(-c3ccccc3)c12 [Compound 51],6000 to 25000 nM
13,COc1ccc(C(=O)c2oc3ccc4c(C)cc(=O)oc4c3c2-c2ccccc2)c(OC)c1 [Compound 56],6000 to 25000 nM
14,Cc1cc(=O)oc2c1ccc1oc(C(=O)c3ccc(Cl)c(Cl)c3)c(-c3ccccc3)c12 [Compound 58],1000 to 5900 nM
15,Cc1cc(=O)oc2c1ccc1oc(C(=O)c3cccc([N+](=O)[O-])c3)c(-c3ccccc3)c12 [Compound 66],1000 to 5900 nM
16,Cc1cc(=O)oc2c1ccc1oc(C(=O)c3cccc(N)c3)c(-c3ccccc3)c12 [Compound 67],1000 to 5900 nM
17,Cc1cc(=O)oc2c1ccc1oc(C(=O)c3cccc(OCCCl)c3)c(-c3ccccc3)c12 [Compound 73],1000 to 5900 nM
18,Cc1cc(=O)oc2c1ccc1oc(C(=O)c3cccc(OCCN4CCOCC4)c3)c(-c3ccccc3)c12 [Compound 80],1000 to 5900 nM
19,Cc1cc(=O)oc2c1ccc1oc(C(=O)c3cccc(OCCCN4CCOCC4)c3)c(-c3ccccc3)c12 [Compound 81],1000 to 5900 nM
20,Cc1cc(=O)oc2c1ccc1oc(C(=O)c3cccc(OCCCCN4CCOCC4)c3)c(-c3ccccc3)c12 [Compound 82],1000 to 5900 nM
21,Cc1cc(=O)oc2c1ccc1oc(C(=O)c3cccc(OCCCN4CCCCC4)c3)c(-c3ccccc3)c12 [Compound 84],6000 to 25000 nM
22,Cc1cc(=O)oc2c1ccc1oc(C(=O)c3cccc(OCCN(C)C)c3)c(-c3ccccc3)c12 [Compound 86],6000 to 25000 nM
23,Cc1cc(=O)oc2c1ccc1oc(C(=O)c3cccc(OCCCN(C)C)c3)c(-c3ccccc3)c12 [Compound 87],6000 to 25000 nM
24,Cc1ccc(C(=O)c2oc3ccc4c(C)cc(=O)oc4c3c2-c2ccccc2)o1 [Compound 94],6000 to 25000 nM
25,Cc1cc(=O)oc2c1ccc1oc(C(=O)c3cc(Cl)sc3Cl)c(-c3ccccc3)c12 [Compound 97],1000 to 5900 nM
26,Cc1cc(=O)oc2c1ccc1oc(C(=O)c3ccccc3)c(-c3cccc(F)c3)c12 [Compound 133],1000 to 5900 nM
27,Cc1cc(=O)oc2c1ccc1oc(C(=O)c3ccccc3)c(-c3cccc(Cl)c3)c12 [Compound 136],1000 to 5900 nM
